According to article PMC8327158, “PEGylated AdipoRon derivatives improve glucose and lipid metabolism under insulinopenic and high-fat diet conditions” (Journal of Lipid Research, 2021):

Columns and labels:
[1] = system: HFD-fed mice; experiment: qPCR gene expression in pancreas, BAT and scWAT of HFD mice; type: in vivo, mouse
Procedure: Total RNA was extracted with the RNeasy Mini kit (Qiagen #74106) for the pancreas or Trizol (Invitrogen #15596018) for the liver and adipose tissue. cDNA was synthesized with iScript cDNA Synthesis Kit (Bio-Rad #170-8891). Quantitative real-time PCR (qPCR) was performed with the Powerup SYBR Green PCR master mix (Applied Biosystems # A25742) on Quantistudio 6 Flex Real-Time PCR System (Applied Biosystems #4485694). Primer sequences for qPCR are listed in supplemental Table S2.
(§1) Six-week-old wild-type male mice were fed HFD for 4 weeks or 7 months In total, 5 mg/Kg of PBS, Adiporon, AdipoRonPEG5, AdipoRonPEG6HTL were injected twice a day for 5 days. After 5 days of treatment, systemic test is performed, and serum (Before and after treatment), subcutaneous, epididymal, liver, heart samples were harvested for qPCR and sphingolipid analysis.

[2] = system: HFD-fed wild-type mice; experiment: Food intake, body weight, ITT and OGTT in mice on HFD for 7 months; type: in vivo, mouse; conditions: HFD 7 months, 5 mg/kg twice a day for 5 days
Procedure: For oral glucose tolerance test (OGTT), mice were fasted for 4–6 h and subjected to an oral gavage of dextrose (2 mg/g body weight). Tail blood was collected at 0, 15, 30, 60, and 120 min and prepared for serum and assayed for glucose and insulin. For insulin tolerance test (ITT), insulin (0.75 U/kg Humulin R; Eli Lilly, Indianapolis, IN) was administered under fed condition. Serum glucose level was measured at 0, 15, 30, 60, and 90 min time point. Triglyceride tolerance test (TGTT) was initiated by oral gavage of 20% Intralipid (10 μl/g BDW, l141-100 ml, Sigma), and serum was collected at 0, 1, 1.5, 3, and 6 h for triglyceride assay. Glucose, insulin, and triacylglyceride levels were measured using an oxidase-peroxidase assay (Sigma P7119), insulin ELISA (Crystal Chem, Elk Grove village, IL, #15596018), and Infinity Triglycerides Reagent (Thermo Fisher Scientific TR22421).
as §1

O=C(COc1ccc(C(=O)c2ccccc2)cc1)NC1CCN(Cc2ccc(OCCOCCOCCOCCOCCO)cc2)CC1 [AdipoRonPEG5]
Cpt-1a expression ([1]; BAT): increased expression
Prdm16 expression ([1]; BAT): significant upregulation
fibrosis-related genes (Col1a1, Col3a1, Fn1) and Tgfb1 ([1]; subcutaneous adipose tissue): lowered
genes maintaining the functional state of pancreatic β-cells ([1]; whole pancreas lysate): did not detect a significant upregulation
blood glucose levels in ITT [2]: significant reduction
blood glucose levels in OGTT [2]: not altered
blood insulin levels in OGTT [2]: reduction of blood insulin levels
food intake or body weight [2]: no significant impact
